Results published in patent US20160158317A1, “Antimicrobial Peptide Variants and Polynucleotides Encoding Same” (Adenium Biotech A/S, priority 2010, published 2016).
Several values for one entry are separate records, joined by “and”; a condition that tells them apart may be missing. Equal entries are not always repeated. Marks after values point to notes of the source that are not given here.

Test system: Escherichia coli AID#172
Assay: Peritonitis/sepsis model in neutropenic NMRI mice, effect over time of 7.5 mg/kg (Example 3)
Format: in vivo
Parameters: key to Score T = 0 hour / Score T = 5 hours / Score T = 2 hours: Score 0: Healthy.; Score 1: Minor clinical signs of infection and inflammation e.g. observations of minor signs of distress or changed activity.; Score 2: Clear signs of infection like, social withdrawal, lack of curiosity, changed body position, piloerection, or changes in pattern of movement.; Score 3: Severe signs of infection like stiff movements, lack of curiosity, changed body position, piloerection, pain, or changes in pattern of movement.; Score 4: Severe pain and the mouse was sacrificed immediately to minimize the suffering of the animal.; Score 5: The mouse was dead
Details: for CFU levels compared to vehicle: peritoneal fluid at 2 and 5 hours, blood at 5 hours, p<0.01; for difference in CFU levels compared to vehicle treatment, blood / difference in CFU levels compared to vehicle treatment, peritoneum: single i.v. dose (NZ17074 7.5 mg/kg, Meropenem 40 mg/kg); for Score T = 0 hour: score at start of treatment; for log10 CFU Mean Blood / log10 CFU mean PF: group mean; for log10 CFU mean PF / log10 CFU PF: peritoneal fluid
Method: The purpose of this study was to investigate the in vivo efficacy of NZ17074 following intravenous (i.v.) administration of a single dose of 7.5 mg/kg. The effect was tested against Escherichia coli AID#172 in the peritonitis model in neutropenic NMRI mice to avoid the use of mucin as normally applied in the murine peritonitis model. The mice were rendered neutropenic by cyclophosphamide injections. Treatment with 40 mg/kg meropenem was included as a positive control group and treatment with vehicle was included as a negative control group. The colony counts in peritoneal fluid and blood were determined at 2 and 5 hours after treatment.
• 30 outbred, NMRI female mice, 28-32 grams (Harlan Scandinavia) • Escherichia coli AID#172 from Statens Serum Institute, Copenhagen, Denmark. Clinical isolate from a human wound from 2003. Multiresistant (Ampicillin, Ceftazidime, Aztreonam, Gentamicin, Ciprofloxacin) • NZ17074 in Ringer Acetate pH 6, 1.2 ml 0.75 mg/ml. […] Lot no. 09466C Date of expiration: 08-2013 • APODAN®(A-Pharma, 1 g cyclophosphamide) Batch nr. 928491 • Date of expiration: May 2012 • Water, sterile • 0.9% saline, sterile • 5% Horse Blood Agar plates • Lactose bromthymol blue agar plates
The mice were rendered neutropenic by injecting 0.5 ml cyclophosphamide solution intraperitoneally 4 days (200 mg/kg) and 1 day (100 mg/kg) prior to inoculation.
Fresh overnight E. coli AID#172 colonies from a 5% Horse Blood Agar plate were suspended and diluted in sterile saline to approximately 2×10^6CFU/ml.
One hour before start of treatment (time −1 hour) mice were inoculated intraperitoneally with 0.5 ml of the E. coli suspension in the lateral lower quadrant of the abdomen.
The mice were clinically scored for signs of infection at the time of each sampling. • Score 0: Healthy. • Score 1: Minor clinical signs of infection and inflammation e.g. observations of minor signs of distress or changed activity. • Score 2: Clear signs of infection like, social withdrawal, lack of curiosity, changed body position, piloerection, or changes in pattern of movement. • Score 3: Severe signs of infection like stiff movements, lack of curiosity, forced ventilation, changed body position, piloerection, pain, or changes in pattern o movement. • Score 4: Severe pain and the mouse was sacrificed immediately to minimize the suffering of the animal. • Score 5: The mouse was dead.
The mice were treated i.v. in the lateral tail vein over approximately 30 seconds with a single dose of NZ17074, meropenem or vehicle at time 0 hour (see Table 1). The dosing was based on a mean weight of 30 g. Mice that weighed 28-32 g received 0.30 ml solution. Mice that weighed 27-28 g received 0.25 ml solution and mice that weighed 32.1-36 g received 0.35 ml solution. Mouse 17 accidently received 0.35 ml although it weighed 29.5 g.
Colony counts were determined from blood and peritoneal fluid at 0, 2 and 5 hours after treatment according to Table 1.
The mice were anesthetized with O2+CO2 and blood was collected by axilliary cut down. The mice were sacrificed by cervical dislocation and a total of 2 ml sterile saline was injected i.p. and the abdomen gently massaged before it was opened and fluid sampled with a pipette. Each sample was 10 fold diluted in saline and 20-microliter spots were applied on blood agar plates. All agar plates were incubated 18-22 hours at 35° C. in ambient air.
The CFU numbers are log10 transformed before performing calculations to obtain a normal distribution.

[1] = Meropenem 40 mg/kg single dose, sampling T = 2, individual mice
[2] = Meropenem 40 mg/kg single dose, sampling T = 5, p < 0.01 vs vehicle
[3] = Meropenem 40 mg/kg single dose, sampling T = 5, individual mice
[4] = Meropenem 40 mg/kg single dose, individual mice

C[C@@H](O)[C@H]1C(=O)N2C(C(=O)O)=C(S[C@@H]3CN[C@H](C(=O)N(C)C)C3)[C@H](C)[C@H]12 [meropenem]
CFU levels compared to vehicle, blood (40 mg/kg i.v., 2 hours after treatment): lack of significance
CFU levels compared to vehicle (40 mg/kg i.v.): significantly (p<0.01) reduced CFU levels
CFU levels compared to vehicle (40 mg/kg i.v., listed as Meropenem): significant reduction
difference in CFU levels compared to vehicle treatment, blood (2 hours): blood −0.82 log log cfu/ml
difference in CFU levels compared to vehicle treatment, peritoneum (2 hours): 2 hours: peritoneum −1.51 log cfu/ml
difference in CFU levels compared to vehicle treatment, blood (5 hours): blood −1.64 log log cfu/ml
difference in CFU levels compared to vehicle treatment, peritoneum (5 hours): 5 hours: peritoneum −1.51 log cfu/ml
Score T = 0 hour (Meropenem 40 mg/kg single dose, group sampled T = 2, individual mice): 0
Score T = 0 hour (Meropenem 40 mg/kg single dose, group sampled T = 5, individual mice): 0
log10 CFU Mean Blood (Meropenem 40 mg/kg single dose, sampling T = 2, not significant vs vehicle): 3.76 log10 CFU
log10 CFU Blood [1]: 3.60 log10 CFU and 3.57 log10 CFU and 4.11 log10 CFU
log10 CFU Mean Blood [2]: 3.10** log10 CFU
log10 CFU Blood [3]: 3.20 log10 CFU and 2.85 log10 CFU and 3.26 log10 CFU
Score T = 2 hours [4]: 1
Score T = 5 hours [4]: 0
log10 CFU mean PF (Meropenem 40 mg/kg single dose, sampling T = 2, p < 0.01 vs vehicle): 3.92** log10 CFU
log10 CFU PF [1]: 4.12 log10 CFU and 3.40 log10 CFU and 4.24 log10 CFU
log10 CFU mean PF [2]: 4.21** log10 CFU
log10 CFU PF [3]: 4.38 log10 CFU and 4.00 log10 CFU and 4.26 log10 CFU
